Among the data in patent US20250179078A1, “INHIBITORS OF NLRP3” (PTC THERAPEUTICS, INC., priority 2022, published 2025) are IC50 values, retold here.

Structures are written as SMILES. pIC50: −log10 of the molar value. Where only a bound is given, the exact number is not on record here.

T1 sequence (Q96P20 whole entry): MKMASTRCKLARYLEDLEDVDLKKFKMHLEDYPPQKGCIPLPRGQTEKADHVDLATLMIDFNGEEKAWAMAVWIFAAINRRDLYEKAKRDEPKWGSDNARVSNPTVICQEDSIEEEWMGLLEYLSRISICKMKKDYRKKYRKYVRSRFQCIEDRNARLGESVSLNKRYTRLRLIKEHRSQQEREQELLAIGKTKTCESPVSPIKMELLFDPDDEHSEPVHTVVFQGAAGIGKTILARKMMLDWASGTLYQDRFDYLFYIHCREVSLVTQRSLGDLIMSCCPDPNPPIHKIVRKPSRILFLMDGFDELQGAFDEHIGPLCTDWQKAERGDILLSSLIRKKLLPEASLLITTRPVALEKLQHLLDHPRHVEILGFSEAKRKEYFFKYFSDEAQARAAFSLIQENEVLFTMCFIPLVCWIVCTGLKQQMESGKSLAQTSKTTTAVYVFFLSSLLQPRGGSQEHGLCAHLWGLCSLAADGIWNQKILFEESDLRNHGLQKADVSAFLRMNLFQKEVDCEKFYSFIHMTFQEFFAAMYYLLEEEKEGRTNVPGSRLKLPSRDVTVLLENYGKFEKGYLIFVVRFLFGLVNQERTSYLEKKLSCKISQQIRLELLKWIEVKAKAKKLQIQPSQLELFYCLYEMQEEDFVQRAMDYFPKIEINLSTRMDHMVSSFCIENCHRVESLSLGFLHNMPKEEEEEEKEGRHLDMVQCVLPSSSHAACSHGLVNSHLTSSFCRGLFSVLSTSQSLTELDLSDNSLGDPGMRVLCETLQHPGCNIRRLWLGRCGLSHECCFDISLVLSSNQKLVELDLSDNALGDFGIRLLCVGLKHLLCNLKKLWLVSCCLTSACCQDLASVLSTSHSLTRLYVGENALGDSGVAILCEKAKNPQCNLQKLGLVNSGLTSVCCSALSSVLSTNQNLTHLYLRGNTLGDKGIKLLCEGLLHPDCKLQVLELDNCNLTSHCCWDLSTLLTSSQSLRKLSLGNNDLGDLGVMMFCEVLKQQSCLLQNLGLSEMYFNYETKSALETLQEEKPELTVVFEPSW

The experiment concerns the target T1, NLRP3 (Homo sapiens, UniProt Q96P20).
T1 construct: host or cells: THP-1 cells differentiated with PMA
The experiment is described as follows: IL-1β Secretion Assay (NLRP3-dependent IL1β secretion in THP1 cells). Type of experiment: cell-based. Particulars: PMA-differentiated THP-1 cells; compounds incubated 20 h; 2.5 μM Nigericin 3 h; HTRF IL-1β readout; read-out: IC50 IL-1β Inhibition. An outline of the steps:
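THP-1 cells differentiated with 100 ng/mL PMA for 24 h, then given compound (7-point 3-fold series, 1:200 from DMSO) for 20 h in RPMI+5% FBS. NLRP3 activated with 2.5 μM nigericin for 3 h; secreted IL-1β measured by HTRF; IC50 from logistic fit of % inhibition.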
On the technique in general: In TR-FRET formats the signal depends on donor and acceptor labels being close together.
A word on the pIC50: it is the negative decadic logarithm of the IC50, by convention in mol/L. In the case of `COc1ccc(-c2nnc(N[C@H]3C[C@@](C)(O)C3)n3ccc(F)c23)c(OC(F)F)c1` [Compound 58, (1s,3s)-3-({1-[2-(difluoromethoxy)-4-methoxyphenyl]-8-fluoropyrrolo[1,2-d][1,2,4]triazin-4-yl}amino)-1-methylcyclobutan-1-ol], the negative logarithm of the IC50 (pIC50) was 7.00 to 8.00. The value for `CN1CCC[C@@H](CNc2nnc(-c3ccc(C(F)(F)F)cc3CC(F)(F)F)c3cccn23)C1` [Compound 146, N-{[(3S)-1-methylpiperidin-3-yl]methyl}-1-[2-(2,2,2-trifluoroethyl)-4-(trifluoromethyl)phenyl]pyrrolo[1,2-d][1,2,4]triazin-4-amine] was 8.00 to 9.00; that for `Cc1ccc(-c2nnc(N[C@@H]3CCCC[C@H]3O)n3cccc23)c(CC(F)(F)F)c1` [Compound 156, (1R,2R)-2-({1-[4-methyl-2-(2,2,2-trifluoroethyl)phenyl]pyrrolo[1,2-d][1,2,4]triazin-4-yl}amino)cyclohexan-1-ol] was 8.00 to 9.00. Take `Cc1cc2c(-c3ccc(Cl)cc3OC(F)F)nnc(N[C@@H]3CCCN(C)C3)n2n1` [Compound 358, 4-[4-chloro-2-(difluoromethoxy)phenyl]-2-methyl-N-[(3R)-1-methylpiperidin-3-yl]pyrazolo[1,5-d][1,2,4]triazin-7-amine]: the pIC50 is above 9.00. Consider `Cc1ncn2c(N[C@@H]3CCCN(C)C3)nnc(-c3ccc(C(F)(F)F)cc3CC(F)(F)F)c12` [Compound 279, 8-methyl-N-[(3R)-1-methylpiperidin-3-yl]-1-[2-(2,2,2-trifluoroethyl)-4-(trifluoromethyl)phenyl]imidazo[1,5-d][1,2,4]triazin-4-amine], for which the negative-log IC50 (pIC50) was above 9.00. Then `CCN1CCC[C@@H](Nc2nnc(-c3ccc(Br)cc3OC(F)(F)F)c3cc(C)nn23)C1` [Compound 357, 4-[4-bromo-2-(trifluoromethoxy)phenyl]-N-[(3R)-1-ethylpiperidin-3-yl]-2-methylpyrazolo[1,5-d][1,2,4]triazin-7-amine], with above 9.00; and `O[C@@H]1COCC[C@H]1Nc1nnc(-c2ccc(C(F)(F)F)cc2CC(F)(F)F)c2cccn12` [Compound 112, (3S,4R)-4-({1-[2-(2,2,2-trifluoroethyl)-4-(trifluoromethyl)phenyl]pyrrolo[1,2-d][1,2,4]triazin-4-yl}amino)oxan-3-ol], with 8.00 to 9.00; and `CN1CCC[C@@H](Nc2nnc(-c3ccc(OC(F)F)cc3OC(F)(F)F)c3cncn23)C1` [Compound 295, 1-[4-(difluoromethoxy)-2-(trifluoromethoxy)phenyl]-N-[(3R)-1-methylpiperidin-3-yl]imidazo[1,5-d][1,2,4]triazin-4-amine], with above 9.00. Then `COc1ccc(-c2nnc(NC3CCNC3=O)n3nc(C)cc23)c(CC(F)(F)F)c1` (stereo not shown) [Compound 386, 3-({4-[4-methoxy-2-(2,2,2-trifluoroethyl)phenyl]-2-methylpyrazolo[1,5-d][1,2,4]triazin-7-yl}amino)pyrrolidin-2-one], with 7.00 to 8.00; and `COc1ccc(-c2nnc(N[C@H]3C[C@@](C)(O)C3)n3cccc23)c(C(F)(F)F)c1` [Compound 71, (1s,3s)-3-({1-[4-methoxy-2-(trifluoromethyl)phenyl]pyrrolo[1,2-d][1,2,4]triazin-4-yl}amino)-1-methylcyclobutan-1-ol], with 8.00 to 9.00; and `Cc1ccc(-c2nnc(N[C@@H]3CCCN(C)C3)n3cccc23)c(OC(F)F)c1` [Compound 33, 1-[2-(difluoromethoxy)-4-methylphenyl]-N-[(3R)-1-methylpiperidin-3-yl]pyrrolo[1,2-d][1,2,4]triazin-4-amine], with 8.00 to 9.00. The value for `Cc1ccc(-c2nnc(N[C@@H]3CCCC[C@@H]3O)n3cccc23)c(OC(F)F)c1` [Compound 137, (1S,2R)-2-({1-[2-(difluoromethoxy)-4-methylphenyl]pyrrolo[1,2-d][1,2,4]triazin-4-yl}amino)cyclohexan-1-ol] was 8.00 to 9.00. With `CCN1C[C@H](F)C[C@@H](Nc2nnc(-c3ccc(Br)cc3C(F)(F)F)c3cncn23)C1` [Compound 205, 1-[4-bromo-2-(trifluoromethyl)phenyl]-N-[(3R,5R)-1-ethyl-5-fluoropiperidin-3-yl]imidazo[1,5-d][1,2,4]triazin-4-amine], the pIC50 is 7.00 to 8.00. Then `O=C1NCCC1Nc1nnc(-c2ccc(C(F)(F)F)cc2CC(F)(F)F)c2cncn12` (stereo not shown) [Compound 265, 3-({1-[2-(2,2,2-trifluoroethyl)-4-(trifluoromethyl)phenyl]imidazo[1,5-d][1,2,4]triazin-4-yl}amino)pyrrolidin-2-one], with above 9.00; and `COc1ccc(-c2nnc(N[C@@H]3CCCN(C)C3)n3cncc23)c(C(F)(F)C(F)(F)F)c1` [Compound 281, 1-[4-methoxy-2-(pentafluoroethyl)phenyl]-N-[(3R)-1-methylpiperidin-3-yl]imidazo[1,5-d][1,2,4]triazin-4-amine], with 8.00 to 9.00; and `COc1ccc(-c2nnc(N[C@@H]3CCCC[C@H]3O)n3cncc23)c(OC(F)F)c1` [Compound 270, (1R,2R)-2-({1-[2-(difluoromethoxy)-4-methoxyphenyl]imidazo[1,5-d][1,2,4]triazin-4-yl}amino)cyclohexan-1-ol], with 8.00 to 9.00. As for `Cc1ccc(-c2nnc(N[C@H]3C[C@@](C)(O)C3)n3cccc23)c(CC(F)(F)F)c1` [Compound 158, (1s,3s)-1-methyl-3-({1-[4-methyl-2-(2,2,2-trifluoroethyl)phenyl]pyrrolo[1,2-d][1,2,4]triazin-4-yl}amino)cyclobutan-1-ol], the pIC50 is 8.00 to 9.00. Then `COc1ccc(-c2nnc(N[C@@H]3CCCN(C)C3)n3ccc(F)c23)c(OC(F)F)c1` [Compound 55, 1-[2-(difluoromethoxy)-4-methoxyphenyl]-8-fluoro-N-[(3R)-1-methylpiperidin-3-yl]pyrrolo[1,2-d][1,2,4]triazin-4-amine], with 7.00 to 8.00; and `C[C@]1(O)C[C@@H](Nc2nnc(-c3ccc(C(F)(F)F)cc3OC(F)(F)F)c3cncn23)C1` [Compound 241, (1s,3s)-1-methyl-3-({1-[2-(trifluoromethoxy)-4-(trifluoromethyl)phenyl]imidazo[1,5-d][1,2,4]triazin-4-yl}amino)cyclobutan-1-ol], with above 9.00; and `CCN1CCC[C@@H](Nc2nnc(-c3ccc(C#N)cc3OC(F)F)c3cc(C)nn23)C1` [Compound 378, 3-(difluoromethoxy)-4-(7-{[(3R)-1-ethylpiperidin-3-yl]amino}-2-methylpyrazolo[1,5-d][1,2,4]triazin-4-yl)benzonitrile], with 8.00 to 9.00.

Regarding `Cc1ccc(-c2nnc(N[C@@H]3CCCN(C)C3)n3cncc23)c(CC(F)(F)F)c1` [Compound 317, N-[(3R)-1-methylpiperidin-3-yl]-1-[4-methyl-2-(2,2,2-trifluoroethyl)phenyl]imidazo[1,5-d][1,2,4]triazin-4-amine], the pIC50 was 8.00 to 9.00. On to `COc1ccc(-c2nnc(N[C@@H]3CCCN(C)C3)n3cc(C)cc23)c(OC(F)F)c1` [Compound 12, 1-[2-(difluoromethoxy)-4-methoxyphenyl]-7-methyl-N-[(3R)-1-methylpiperidin-3-yl]pyrrolo[1,2-d][1,2,4]triazin-4-amine], for which the pIC50 was 8.00 to 9.00.

With `Cc1ccc(-c2nnc(N[C@@H]3CCCN(C)C3)n3nc(C)cc23)c(C(F)F)c1` [Compound 364, 4-[2-(difluoromethyl)-4-methylphenyl]-2-methyl-N-[(3R)-1-methylpiperidin-3-yl]pyrazolo[1,5-d][1,2,4]triazin-7-amine], the negative-log IC50 (pIC50) is 7.00 to 8.00.

`O=C1NCCC1Nc1nnc(-c2ccc(C(F)(F)F)cc2OC(F)(F)F)c2cccn12` (stereo not shown) [Compound 124, 3-({1-[2-(trifluoromethoxy)-4-(trifluoromethyl)phenyl]pyrrolo[1,2-d][1,2,4]triazin-4-yl}amino)pyrrolidin-2-one]: the negative-log IC50 (pIC50) was 8.00 to 9.00. For the molecule `CCN1CCC[C@@H](Nc2nnc(-c3ccc(OC)cc3Cl)c3c(F)ccn23)C1` [Compound 82, 1-(2-chloro-4-methoxyphenyl)-N-[(3R)-1-ethylpiperidin-3-yl]-8-fluoropyrrolo[1,2-d][1,2,4]triazin-4-amine], the pIC50 was 8.00 to 9.00. For `Cc1ccc(-c2nnc(N[C@@H]3CCCN(CCO)C3)n3cncc23)c(OC(F)F)c1` [Compound 184, 2-[(3R)-3-({1-[2-(difluoromethoxy)-4-methylphenyl]imidazo[1,5-d][1,2,4]triazin-4-yl}amino)piperidin-1-yl]ethan-1-ol], the pIC50 is 8.00 to 9.00. The value for `COc1ccc(-c2nnc(NC[C@H](C)O)n3cccc23)c(OC(F)(F)F)c1` [Compound 65, (2S)-1-({1-[4-methoxy-2-(trifluoromethoxy)phenyl]pyrrolo[1,2-d][1,2,4]triazin-4-yl}amino)propan-2-ol] was 7.00 to 8.00; that for `O=C1NCCC1Nc1nnc(-c2ccc(C3CC3)cc2CC(F)(F)F)c2cncn12` (stereo not shown) [Compound 350, 3-({1-[4-cyclopropyl-2-(2,2,2-trifluoroethyl)phenyl]imidazo[1,5-d][1,2,4]triazin-4-yl}amino)pyrrolidin-2-one] was 8.00 to 9.00. Then `C[C@]1(O)C[C@@H](Nc2nnc(-c3ccc(C(F)(F)F)cc3CC(F)(F)F)c3cncn23)C1` [Compound 263, (1s,3s)-1-methyl-3-({1-[2-(2,2,2-trifluoroethyl)-4-(trifluoromethyl)phenyl]imidazo[1,5-d][1,2,4]triazin-4-yl}amino)cyclobutan-1-ol], with above 9.00; and `Cc1ccc(-c2nnc(N[C@H]3CCCC[C@@H]3O)n3cccc23)c(OC(F)F)c1` [Compound 80, (1S,2S)-2-({1-[2-(difluoromethoxy)-4-methylphenyl]pyrrolo[1,2-d][1,2,4]triazin-4-yl}amino)cyclohexan-1-ol], with 7.00 to 8.00; and `CCN1CCC[C@@H](Nc2nnc(-c3ccc(SC)cc3OC(F)(F)F)c3cc(C)nn23)C1` [Compound 366, N-[(3R)-1-ethylpiperidin-3-yl]-2-methyl-4-[4-(methylsulfanyl)-2-(trifluoromethoxy)phenyl]pyrazolo[1,5-d][1,2,4]triazin-7-amine], with 8.00 to 9.00.
